Four compounds from ChEMBL document CHEMBL1158079, “Antimalarial 4-phenylcoumarins from the stem bark of Hintonia latiflora” (J Nat Prod, 2006) can be followed below.

Values after ≈ are worked out from the molar mass of the structure shown.

Series [1] deals with Plasmodium berghei. The series can be described thus: Antimalarial activity in schizont maturation against Plasmodium berghei ANKA infected mice (Mus musculus) at 200 mg/kg/day peroral dose over 4 days. In kind it is functional. To be noted: route oral.
Series [2] relates to Plasmodium berghei. The series can be described thus: Antimalarial activity reduced schizont maturation in Plasmodium berghei at 10 ug/mL after 16 hrs. Also on record: scale not given: the % may be the effect or the level left. In kind it is functional.
The test system of series [3] is Plasmodium berghei. The series can be described thus: Antimalarial activity as reduced schizont maturation in Plasmodium berghei ANKA infected mice (Mus musculus) at 5 mg/kg/day peroral dose over 4 days. The note with it: route oral. In kind it is functional. Also on record: scale not given: the % may be the effect or the level left.
Series [4] concerns Mus musculus. The series can be described thus: Toxicity in Plasmodium berghei ANKA infected mice (Mus musculus) at 40 mg/kg/day, perorally after 4 days. On the set-up: route oral. In kind it is organism-based. The note with it: in vivo, po, 96 h.
A short description of series [5]: Toxicity against human KB cells. The note with it: read-out: ED50 (the source's name). In kind it is cell-based.
The nature of series [6]: Toxicity against human SQC1 UISO cells. In kind it is cell-based. The note with it: read-out: ED50 (the source's name).
A short description of series [7]: Toxicity against mouse P388 cells. In kind it is cell-based. The note with it: read-out: ED50 (the source's name).
Series [8] deals with Plasmodium berghei. The series can be described thus: Antimalarial activity as reduced schizont maturation in Plasmodium berghei ANKA infected mice (Mus musculus) at 40 mg/kg/day peroral dose over 4 days. In kind it is functional. The note with it: route oral. On the set-up: scale not given: the % may be the effect or the level left.
Series [9] relates to Plasmodium berghei. The series can be described thus: Antimalarial activity as reduced schizont maturation in Plasmodium berghei after 16 hrs. In kind it is functional. On the set-up: scale not given: the % may be the effect or the level left.

For `CCN(CC)CCCC(C)Nc1ccnc2cc(Cl)ccc12` (stereo not drawn) [CHLOROQUINE], the Activity is on record as 94% in [1], 100% in [2], 95.7% in series [3] and “Non-toxic” in series [4].
On to `Cc1c2ccncc2c(C)c2c1[nH]c1ccccc12` [ELLIPTECINE], for which the figures for the CC50 in series [5], in series [6] and in series [7] were 1.31 µg/mL (≈ 5.32 µM), 1.77 µg/mL (≈ 7.19 µM) and less than 1 µg/mL, respectively.
Regarding `COc1cc(O[C@@H]2O[C@H](CO)[C@@H](O)[C@H](O)[C@H]2O)c2c(-c3ccc(OC)c(O)c3)cc(=O)oc2c1`, the results for the Activity in series [8], in series [9] and in [4] were 35.1%, 24.7% and “Non-toxic”, respectively.
Take `COc1cc(O[C@@H]2O[C@H](CO)[C@@H](O)[C@H](O)[C@H]2O)c2c(-c3ccc(O)c(O)c3)cc(=O)oc2c1`: the Activity in [8] is recorded as 70.8%; in [9], 25.9%; in series [4], “Non-toxic”.
